Measurements reported in ChEMBL document CHEMBL5584256, “Bromine/Sulfur-Substituted 9H-Carbazoles Produced by the Marine-Derived Streptomyces sp. OUCMDZ-5511 upon NaBr Exposure” (J Nat Prod, 2024).
The source made the active and inactive calls. No cut-off for these calls is given here.

What was measured:
Danio rerio [1] = species: Danio rerio; test: Anti-inflammatory activity in transgenic zebrafish harboring Tg (zlyz:EGFP) assessed as reduction in CuSO4-induced IRAK4 mRNA level at 5 to 15 uM preincubated for 2 hrs followed by CuSO4 treatment for 45 mins […]; type: functional, organism-based; details: dose 5-15 µM, time 165.0 min
[2] = Toxicity in transgenic zebrafish harboring Tg (zlyz:EGFP) preincubated for 2 hrs followed by CuSO4 treatment for 45 mins; design: species or system Danio rerio; details: in vivo, time 165 min
Danio rerio [3] = species: Danio rerio; test: Anti-inflammatory activity in transgenic zebrafish harboring Tg (zlyz:EGFP) assessed as reduction in CuSO4-induced NF-kappa-b mRNA level at 5 to 15 uM preincubated for 2 hrs followed by CuSO4 treatment for 45 mins […]; type: functional, organism-based; details: dose 5-15 µM, time 165.0 min
Danio rerio [4] = species: Danio rerio; test: Anti-inflammatory activity in transgenic zebrafish harboring Tg (zlyz:EGFP) assessed as reduction in CuSO4-induced TRAF6 mRNA level at 5 to 15 uM preincubated for 2 hrs followed by CuSO4 treatment for 45 mins […]; type: functional, organism-based; details: dose 5-15 µM, time 165.0 min
Danio rerio [5] = species: Danio rerio; test: Anti-inflammatory activity in transgenic zebrafish harboring Tg (zlyz:EGFP) assessed as reduction in CuSO4-induced IRAK1 mRNA level at 5 to 15 uM preincubated for 2 hrs followed by CuSO4 treatment for 45 mins […]; type: functional, organism-based; details: dose 5-15 µM, time 165.0 min
Danio rerio [6] = species: Danio rerio; test: Anti-inflammatory activity in transgenic zebrafish harboring Tg (zlyz:EGFP) assessed as reduction in CuSO4-induced I-kappa-b-alpha mRNA level at 5 to 15 uM preincubated for 2 hrs followed by CuSO4 treatment for 45 mins […]; type: functional, organism-based; details: dose 5-15 µM, time 165.0 min
Danio rerio [7] = species: Danio rerio; test: Anti-inflammatory activity in transgenic zebrafish harboring Tg (zlyz:EGFP) assessed as reduction in CuSO4-induced immune cell migration at 10 uM preincubated for 2 hrs followed by CuSO4 treatment for 45 mins by fluorescence microscopy; type: functional, organism-based; details: time 165.0 min
Danio rerio [8] = species: Danio rerio; test: Anti-inflammatory activity in transgenic zebrafish harboring Tg (zlyz:EGFP) assessed as reduction in CuSO4-induced p38 mRNA level at 5 to 15 uM preincubated for 2 hrs followed by CuSO4 treatment for 45 mins […]; type: functional, organism-based; details: dose 5-15 µM, time 165.0 min
Danio rerio [9] = species: Danio rerio; test: Anti-inflammatory activity in transgenic zebrafish harboring Tg (zlyz:EGFP) assessed as reduction in CuSO4-induced TGF-beta mRNA level at 5 to 15 uM preincubated for 2 hrs followed by CuSO4 treatment for 45 mins […]; type: functional, organism-based; details: dose 5-15 µM, time 165.0 min
Danio rerio [10] = species: Danio rerio; test: Anti-inflammatory activity in transgenic zebrafish harboring Tg (zlyz:EGFP) assessed as reduction in CuSO4-induced IKK-beta mRNA level at 5 to 15 uM preincubated for 2 hrs followed by CuSO4 treatment for 45 mins […]; type: functional, organism-based; details: dose 5-15 µM, time 165.0 min
Danio rerio [11] = species: Danio rerio; test: Anti-inflammatory activity in transgenic zebrafish harboring Tg (zlyz:EGFP) assessed as reduction in CuSO4-induced AP-1 mRNA level at 5 to 15 uM preincubated for 2 hrs followed by CuSO4 treatment for 45 mins […]; type: functional, organism-based; details: dose 5-15 µM, time 165.0 min
Danio rerio [12] = species: Danio rerio; test: Anti-inflammatory activity in transgenic zebrafish harboring Tg (zlyz:EGFP) assessed as reduction in CuSO4-induced immune cell migration at 5 to 15 uM preincubated for 2 hrs followed by CuSO4 treatment for 45 mins by fluorescence microscopy; type: functional, organism-based; details: dose 5-15 µM, time 165.0 min
Danio rerio [13] = species: Danio rerio; test: Anti-inflammatory activity in transgenic zebrafish harboring Tg (zlyz:EGFP) assessed as reduction in CuSO4-induced IL-8 mRNA level at 5 to 15 uM preincubated for 2 hrs followed by CuSO4 treatment for 45 mins […]; type: functional, organism-based; details: dose 5-15 µM, time 165.0 min
Danio rerio [14] = species: Danio rerio; test: Anti-inflammatory activity in transgenic zebrafish harboring Tg (zlyz:EGFP) assessed as increase in CuSO4-reduced PPAR-gamma mRNA level at 5 to 15 uM preincubated for 2 hrs followed by CuSO4 treatment for 45 mins […]; type: functional, organism-based; details: dose 5-15 µM, time 165.0 min
Danio rerio [15] = species: Danio rerio; test: Anti-inflammatory activity in transgenic zebrafish harboring Tg (zlyz:EGFP) assessed as reduction in CuSO4-induced MYD88 mRNA level at 5 to 15 uM preincubated for 2 hrs followed by CuSO4 treatment for 45 mins […]; type: functional, organism-based; details: dose 5-15 µM, time 165.0 min
Danio rerio [16] = species: Danio rerio; test: Anti-inflammatory activity in transgenic zebrafish harboring Tg (zlyz:EGFP) assessed as reduction in CuSO4-induced MAP3K7 mRNA level at 5 to 15 uM preincubated for 2 hrs followed by CuSO4 treatment for 45 mins […]; type: functional, organism-based; details: dose 5-15 µM, time 165.0 min

SMILES | Activity (Danio rerio [1]) | LC50 at 0.75 h [2] | Activity (Danio rerio [3]) | Activity (Danio rerio [4]) | Activity (Danio rerio [5]) | Activity (Danio rerio [6]) | Activity (Danio rerio [7]) | Activity (Danio rerio [8]) | Activity (Danio rerio [9]) | Activity (Danio rerio [10]) | Activity (Danio rerio [11]) | Activity (Danio rerio [12]) | Activity (Danio rerio [13]) | Activity (Danio rerio [14]) | Activity (Danio rerio [15]) | Activity (Danio rerio [16])
COc1ccc2[nH]c3c(O)cccc3c2c1Br | Active | 68 µM | Active | Active | Active | Active | Active | Active | Active | Active | Active | Active | Active | Active | Active | Active
COc1ccc2[nH]c3c(ccc4scnc43)c2c1Br | – | – | – | – | – | – | Active | – | – | – | – | – | – | – | – | –
